Laboratory results published in patent US20230346924A1, “MRNA VACCINE COMPRISING ADJUVANT CAPABLE OF KINETIC CONTROL” (PROGENEER INC., priority 2020, published 2023).
“Also recorded” adds a separate entry of the source.

How the values were obtained:
[1] = test system: bone marrow-derived dendritic cells (BMDCs); assay: Degree of antigen presentation in BMDCs treated with mRNA and toll-like receptor agonist (anti-OVA SIINFEKL antibodies); type: cell-based, mouse; conditions: compared to mRNA only
Protocol: To confirm the efficacy of the composition for an mRNA vaccine of the present invention, an experiment was performed using OVA mRNA which is widely used as an mRNA vaccine. In further detail, first, CleanCap® OVA mRNA (5 moU, L-7210, TriLink Biotechnologies) and Opti-MEM™ (Reduced Serum Medium, ThermoFisher Scientific) were mixed at a volume ratio of 1:49, and Lipofectamine (Lipofectamine™ 2000 Transfection Reagent, ThermoFisher Scientific) and Opti-MEM® were mixed at a volume ratio of 2:23 as a delivery system, and then the above mixtures were mixed again in a volume ratio of 1:1 and reacted for 5 minutes, thereby preparing an mRNA composition. As toll-like receptor agonists, a toll-like receptor 3 agonist, which is polyinosinic-polycytidylic acid (poly I:C, Sigma-Aldrich), a toll-like receptor 4 agonist, which is Lipopolysaccharide (LPS, Sigma-Aldrich), and a toll-like receptor 7 or 8 agonist which is resiquimod (Biorbyt), were used. Poly I:C was used after being dispersed in phosphate buffered saline (PBS) at a concentration of 0.8 mg/mL, LPS was used after being dispersed in PBS at a concentration of 0.3 μg/mL, R848 was first dissolved in dimethyl sulfoxide (DMSO) at a concentration of 20 mg/mL, and then the dissolved solution was dispersed in PBS to a concentration of 20 μg/mL and used. In the case of treatment with a single toll-like receptor agonist, poly I:C was treated at 40 μg/mL. LPS was treated at 30 ng/mL, or R848 was treated at […], and in the case of treatment with a combination of agonists, 2 μg/mL of poly I:C and 1 μg/mL of R848 were treated, or 2 ng/mL of LPS and 1 μg/mL of R848 were treated, and in both cases, mRNA was treated at 1 μg/mL.
To identify the efficacy of the composition for an mRNA vaccine of the present invention, as cells for experiments, bone marrow-derived dendritic cells (BMDCs), plasmacytoid dendritic cells (pDCs), and T cells isolated from the spleen of an ovalbumin-specific TCR-bearing mouse (OT-1 transgenic mouse: OT-1 mouse) were used. BMDCs and pDCs were obtained from the bone marrow of a laboratory mouse, C57BL/6 (female, Orient Bio). In further detail, a 6-weeks-old mouse was euthanized, the femur and tibia were cut, and then a medium was flushed to extract internal materials. In addition, the extracted materials were treated with a red blood cell lysis buffer (BioLegend) to remove red blood cells, and used. For pDCs, 6-weeks-old C57BL/6 was euthanized, the femur and tibia were cut, and then a medium was flushed to extract internal materials. The extracted materials were then treated with a red blood cell lysis buffer (BioLegend) to remove red blood cells, and only pDCs were isolated using a pDC isolation kit (Plasmacytoid Dendritic Cell Isolation Kit, mouse, MACS Miltenyi Biotec) to be used in the experiments. Spleen cells were used by extracting the spleen from an OT-1 laboratory mouse, physically grinding the spleen to prepare single cells, washing the cells with PBS, and removing red blood cells with a red blood cell lysis buffer. The obtained cells were then seeded in a culture plate (Corning petri dish) with a size of 100 mm×25 mm to 2×10^6 cells, and cultured under conditions of 5% CO2 and 37° C. As a culture medium, a complete RPMI 1640 medium(Gibco) to which 20 ng/mL of a granulocyte-macrophage colony-stimulating factor (GM-CSF, Recombinant Mouse GM-CSF Protein, R&D Systems) was added, was used. […]

[2] = test system: T cells isolated from the spleen of an OT-1 mouse; assay: OT-1 T cell activation in co-culture of treated BMDCs and T cells; type: cell-based; conditions: BMDC/T cell co-culture
[3] = test system: bone marrow-derived dendritic cells (BMDCs); assay: Cytokine secretion by BMDCs (ELISA: IL-12p70, IL-10, type 1 IFN); type: cell-based, mouse
Protocol: To confirm the efficacy of the composition for an mRNA vaccine of the present invention, an experiment was performed using OVA mRNA which is widely used as an mRNA vaccine. In further detail, first, CleanCap® OVA mRNA (5 moU, L-7210, TriLink Biotechnologies) and Opti-MEM™ (Reduced Serum Medium, ThermoFisher Scientific) were mixed at a volume ratio of 1:49, and Lipofectamine (Lipofectamine™ 2000 Transfection Reagent, ThermoFisher Scientific) and Opti-MEM® were mixed at a volume ratio of 2:23 as a delivery system, and then the above mixtures were mixed again in a volume ratio of 1:1 and reacted for 5 minutes, thereby preparing an mRNA composition. As toll-like receptor agonists, a toll-like receptor 3 agonist, which is polyinosinic-polycytidylic acid (poly I:C, Sigma-Aldrich), a toll-like receptor 4 agonist, which is Lipopolysaccharide (LPS, Sigma-Aldrich), and a toll-like receptor 7 or 8 agonist which is resiquimod (Biorbyt), were used. […]
To confirm the effect of a composition for an mRNA vaccine including a single toll-like receptor in BMDCs, first, BMDCs were treated with a toll-like receptor agonist and modified-mRNA (5-methoxyuridine modified OVA mRNA, TriLink) in the same manner as in Example 12.1, and an antigen presentation degree, amounts of cell surface molecules and levels of cytokines such as interleukin-12p70 (IL-12p70) and interferon were measured. […]

[4] = agonist and mRNA at the same time (0h)
[5] = agonist four hours after mRNA (4h)
[6] = agonist and mRNA at the same time (0h), compared to mRNA alone

In the case of Lipopolysaccharide [LPS], the “degree of antigen presentation” value [1, 4] is reported as “reduced”, the “degree of antigen presentation” value ([1]; agonist eight hours after mRNA (8h)) is reported as “increased” and the “degree of antigen presentation” value [1, 5] is reported as “increased”.

With “polyinosinic-polycytidylic acid [poly I:C]” the “degree of antigen presentation” value [1, 4] was “remarkably reduced”, the “degree of antigen presentation” value [1, 5] was “significantly increased” and the “amount of IFN-γ+ T cells” value ([2]; agonist 4h after mRNA) was “markedly increased”. For the same substance, the “level of IL-2” value ([2]; agonist 4h after mRNA) was “highest; also recorded: markedly increased”, the “level of secreted IFN-γ” value ([2]; agonist 4h after mRNA) was “markedly increased” and the “amount of IFN-γ+ T cells” value ([2]; agonist 8h after mRNA) was “markedly increased”. The “level of IL-2” value ([2]; agonist 8h after mRNA) was “markedly increased”, the “level of secreted IFN-γ” value ([2]; agonist 8h after mRNA) was “markedly increased” and the “amount of IFN-γ+ T cells” value [2, 6] was “remarkably reduced”. For the same substance, the “level of IL-2” value [2, 6] was “remarkably reduced”, the “level of secreted IFN-γ” value [2, 6] was “remarkably reduced” and the “secretion of type 1 IFN” value [3, 4] was “markedly increased”. The “secretion of type 1 IFN” value [3, 5] was “reduced”.
